Patent publication US20160002204A1 (Board of Regents, The University of Texas System, priority 2014, published 2016)

Key:
[1] = biological target: T1, GLS1 (purified recombinant human GAC) (Homo sapiens, UniProt O94925); experiment: GLS1 enzymatic activity assay (dual-coupled, Amplex UltraRed/resorufin); format: biochemical
T1 sequence (O94925 55-598 isoform O94925-3 limits assumed): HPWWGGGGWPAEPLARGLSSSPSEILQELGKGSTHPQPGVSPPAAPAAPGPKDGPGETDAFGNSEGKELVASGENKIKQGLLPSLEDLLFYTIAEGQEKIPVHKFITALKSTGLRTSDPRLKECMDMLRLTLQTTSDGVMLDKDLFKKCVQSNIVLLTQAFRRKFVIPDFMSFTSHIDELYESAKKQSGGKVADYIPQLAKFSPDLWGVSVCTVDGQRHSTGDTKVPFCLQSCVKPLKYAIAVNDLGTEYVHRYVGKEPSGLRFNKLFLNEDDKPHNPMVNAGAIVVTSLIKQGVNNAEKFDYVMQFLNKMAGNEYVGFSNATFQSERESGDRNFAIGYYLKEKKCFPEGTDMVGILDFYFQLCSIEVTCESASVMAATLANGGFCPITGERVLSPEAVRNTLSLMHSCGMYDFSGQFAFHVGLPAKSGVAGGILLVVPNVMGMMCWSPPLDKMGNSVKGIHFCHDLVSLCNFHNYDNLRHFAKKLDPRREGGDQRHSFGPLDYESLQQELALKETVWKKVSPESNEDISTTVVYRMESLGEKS
Outline: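 Recombinant human GAC (2 nM) preincubated with 50 mM potassium phosphate, then inhibitor (10 min each, RT); 1 mM glutamine, pH 7.4 Hepes buffer, 1% DMSO. Glutamate coupled via glutamate oxidase/HRP to resorufin (Ex 530/Em 590), kinetic or 20-min endpoint; IC50 by four-parameter logistic fit.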

[2] = tested on: A549 cells; experiment: A549 proliferation (viability) assay, Cell Titer Fluor, 72 hours; format: cell-based; conditions: Homo sapiens
Outline: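 Seed A549 at 1000 cells/well and culture 24 h. Add compound (final DMSO 0.5%) and incubate 72 h at 37 °C. Add Cell Titer Fluor, mix 15 min, incubate 30 min, read fluorescence and fit EC50 by four-parameter logistic.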

| IC50 [1] | EC50 [2] | SMILES |
| --- | --- | --- |
| < 100 nM | 100 to 500 nM | O=C(Cc1ccsc1)Nc1ccn(CCCCn2cc(C(=O)NCc3cccc(OC(F)(F)F)c3)nn2)c(=O)c1 [Example 203, 1-(4-{2-oxo-4-[2-(thiophen-3-yl)acetamido]-1,2-dihydropyridin-1-yl}butyl)-N-{[3-(trifluoromethoxy)phenyl]methyl}-1H-1,2,3-triazole-4-carboxamide] |
| < 100 nM | 100 to 500 nM | O=C(Cc1cccc(OC(F)(F)F)c1)Nc1ccc(CCCCn2ccc(NC(=O)OC3CCOCC3)nc2=O)nn1 [Example 105, oxan-4-yl N-{2-oxo-1-[4-(6-{2-[3-(trifluoromethoxy)phenyl]acetamido}pyridazin-3-yl)butyl]-1,2-dihydropyrimidin-4-yl}carbamate] |
| < 100 nM | 500 to 5000 nM | O=C(Cc1ccccc1)Nc1ccn(CCCCc2nnc(NC(=O)NCc3ccccc3)s2)c(=O)c1F [Example 129, N-(1-(4-(5-(3-benzylureido)-1,3,4-thiadiazol-2-yl)butyl)-3-fluoro-2-oxo-1,2-dihydropyridin-4-yl)-2-phenylacetamide] |
| < 100 nM | < 100 nM | Cc1ccc(CNC(=O)c2cn(CC(F)CCn3ccc(NC(=O)CC4CCCCC4)cc3=O)nn2)cn1 (stereo not drawn) [Example 177, 1-{4-[4-(2-cyclohexylacetamido)-2-oxo-1,2-dihydropyridin-1-yl]-2-fluorobutyl}-N-[(6-methylpyridin-3-yl)methyl]-1H-1,2,3-triazole-4-carboxamide] |
| < 100 nM | < 100 nM | O=C(NCc1cccc(OC(F)(F)F)c1)c1cn(CC(F)CCn2ccc(NC(=O)[C@H](O)c3ccccc3)cc2=O)nn1 (stereo partly drawn) [Example 223, 1-(2-fluoro-4-{4-[(2R)-2-hydroxy-2-phenylacetamido]-2-oxo-1,2-dihydropyridin-1-yl}butyl)-N-{[3-(trifluoromethoxy)phenyl]methyl}-1H-1,2,3-triazole-4-carboxamide] |
| 100 to 500 nM | > 5000 nM | C[C@@H](NC(=O)Nc1ccn(CCCCc2ccc(NC(=O)Cc3ccccc3)nn2)c(=O)n1)c1ccccc1 [Example 89, N-(6-{4-[2-oxo-4-({[(1R)-1-phenylethyl]carbamoyl}amino)-1,2-dihydropyrimidin-1-yl]butyl}pyridazin-3-yl)-2-phenylacetamide] |
| 500 to 5000 nM | 100 to 500 nM | CC(C)(C)OC(=O)N1CCC(CC(=O)Nc2ccn(CC(F)CCn3cc(C(=O)NCc4cccc(OC(F)(F)F)c4)nn3)c(=O)c2F)CC1 (stereo not drawn) [Example 314, tert-butyl 4-{[(3-fluoro-1-{2-fluoro-4-[4-({[3-(trifluoro-methoxy)phenyl]methyl}carbamoyl)-1H-1,2,3-triazol-1-yl]butyl}-2-oxo-1,2-dihydropyridin-4-yl)carbamoyl]methyl}piperidine-1-carboxylate] |
| < 100 nM | 100 to 500 nM | Cc1ccc(CNC(=O)c2cn(CCCCn3ccc(NC(=O)CC4CCCCC4)cc3=O)nn2)cn1 [Example 145, 1-{4-[4-(2-cyclohexylacetamido)-2-oxo-1,2-dihydropyridin-1-yl]butyl}-N-[(6-methylpyridin-3-yl)methyl]-1H-1,2,3-triazole-4-carboxamide] |
| < 100 nM | 500 to 5000 nM | O=C(NCc1cccc(OC(F)(F)F)c1)c1cn(CC(F)CCn2ccc(COc3ccccc3)cc2=O)nn1 (stereo not drawn) [Example 414, 1-(2-fluoro-4-(2-oxo-4-(phenoxymethyl)pyridin-1(2H)-yl)butyl)-N-(3-(trifluoromethoxy)benzyl)-1H-1,2,3-triazole-4-carboxamide] |
| < 100 nM | < 100 nM | O=C(CN1CCCC(F)(F)C1)Nc1ccn(CCC(F)Cn2cc(C(=O)NCc3cccc(OC(F)(F)F)c3)nn2)c(=O)c1 (stereo not drawn) [Example 274, 1-(4-{4-[2-(3,3-difluoropiperidin-1-yl)acetamido]-2-oxo-1,2-dihydropyridin-1-yl}-2-fluorobutyl)-N-{[3-(trifluoromethoxy)phenyl]methyl}-1H-1,2,3-triazole-4-carboxamide] |

More lines, now with the values behind:

| SMILES | IC50 [1] | EC50 [2] |
| --- | --- | --- |
| O=C(CC1CCC(O)CC1)Nc1ccn(CCCCn2cc(C(=O)NCc3cccc(OC(F)(F)F)c3)nn2)c(=O)c1 (stereo not drawn) [Example 208, 1-(4-{4-[2-(4-hydroxycyclohexyl)acetamido]-2-oxo-1,2-dihydropyridin-1-yl}butyl)-N-{[3-(trifluoromethoxy)phenyl]methyl}-1H-1,2,3-triazole-4-carboxamide] | < 100 nM | 500 to 5000 nM |
| O=C(Nc1ccn(CCC(F)Cn2cc(C(=O)NCc3cc(C(F)(F)F)ccn3)nn2)c(=O)n1)OC1CCC(F)(F)CC1 (stereo not drawn) [Example 495, 4,4-difluorocyclohexyl N-(1-{3-fluoro-4-[4-({[4-(trifluoromethyl)pyridin-2-yl]methyl}carbamoyl)-1H-1,2,3-triazol-1-yl]butyl}-2-oxo-1,2-dihydropyrimidin-4-yl)carbamate] | < 100 nM | 500 to 5000 nM |
| O=C(CC1CCCC1)Nc1ccn(CCC(F)Cn2cc(C(=O)NCc3cccc(OC(F)(F)F)c3)nn2)c(=O)c1F (stereo not drawn) [Example 355, 1-{4-[4-(2-cyclopentylacetamido)-3-fluoro-2-oxo-1,2-dihydropyridin-1-yl]-2-fluorobutyl}-N-{[3-(trifluoromethoxy)phenyl]methyl}-1H-1,2,3-triazole-4-carboxamide] | < 100 nM | < 100 nM |
| O=C(Cc1ccccc1)Nc1cnn(CCC(F)Cn2cc(C(=O)NCc3cccc(OC(F)(F)F)c3)nn2)c(=O)c1 (stereo not drawn) [Example 263, 1-{2-fluoro-4-[6-oxo-4-(2-phenylacetamido)-1,6-dihydropyridazin-1-yl]butyl}-N-{[3-(trifluoromethoxy)phenyl]methyl}-1H-1,2,3-triazole-4-carboxamide] | < 100 nM | 100 to 500 nM |
| O=C(Nc1ccn(CCC(F)Cn2cc(C(=O)NCc3cccc(OC(F)(F)F)c3)nn2)c(=O)c1F)C(=O)N1CCCC(O)C1 (stereo not drawn) [Example 426, 1-(2-fluoro-4-{3-fluoro-4-[2-(3-hydroxypiperidin-1-yl)-2-oxoacetamido]-2-oxo-1,2-dihydropyridin-1-yl}butyl)-N-{[3-(trifluoromethoxy)phenyl]methyl}-1H-1,2,3-triazole-4-carboxamide] | < 100 nM | 500 to 5000 nM |
| Cc1ccc(CNC(=O)c2cn(CCCCn3ccc(NC(=O)C4CCCC4)cc3=O)nn2)cn1 [Example 159, 1-[4-(4-cyclopentaneamido-2-oxo-1,2-dihydropyridin-1-yl)butyl]-N-[(6-methylpyridin-3-yl)methyl]-1H-1,2,3-triazole-4-carboxamide] | 100 to 500 nM | 500 to 5000 nM |
| COc1ccc(CC(=O)Nc2ccn(CCC(F)Cn3cc(C(=O)NCc4cccc(OC(F)(F)F)c4)nn3)c(=O)c2)cn1 (stereo not drawn) [Example 240, 1-(2-fluoro-4-{4-[2-(6-methoxypyridin-3-yl)acetamido]-2-oxo-1,2-dihydropyridin-1-yl}butyl)-N-{[3-(trifluoromethoxy)phenyl]methyl}-1H-1,2,3-triazole-4-carboxamide] | < 100 nM | 500 to 5000 nM |
| O=C(Cc1ccccc1)Nc1ccn(CCC(F)Cn2cc(C(=O)NCc3cc(C(F)(F)F)ccn3)nn2)c(=O)c1 (stereo not drawn) [Example 164, 1-{2-fluoro-4-[2-oxo-4-(2-phenylacetamido)-1,2-dihydropyridin-1-yl]butyl}-N-{[4-(trifluoromethyl)pyridin-2-yl]methyl}-1H-1,2,3-triazole-4-carboxamide] | < 100 nM | 100 to 500 nM |
